This is an account of results in article PMC11148045, “Structural basis for recognition of 26RFa by the pyroglutamylated RFamide peptide receptor” (Cell Discovery, 2024).

No end group written: not given here.

One experiment relates to QRFPR. Conditions: cited from earlier work. An excerpt: The 26RFa/QRFPR system plays critical roles in energy homeostasis. Uncovering the atomic details of 26RFa recognition and regulation of QRFPR is crucial for unraveling the function of QRFPR and developing effective treatments against obesity, diabetes, and eating disorders. […] The unique organization mode is crucial for the recognition of 26RFa by QRFPR. The C-terminal heptapeptide of 26R ...

In experiment [1] the target is T1, QRFPR mutants (Homo sapiens, UniProt Q96P65, Q211A).
T1 construct: expressed in transfected cells; host or cells: HEK293, transient transfection by electroporation
Put plainly: 26RFa-induced calcium mobilization, receptor mutants. In kind it is cell-based. Conditions: HEK293, QRFPR Q211^5.35A; HEK293, Fluo-4; mean ± S.E.M., n ≥ 3. The procedure:
(§1) The gene encoding the WT QRFPR, PrPRR, KISS1R, NPFF1R, or NPFF2R was subcloned into the pcDNA3.0 vector with the addition of an N-terminal HA tag. All of the mutations used for functional studies were generated by QuickChange PCR and verified by DNA sequencing.
(§2) HEK293 cells were obtained from ATCC (Manassas, VA, USA) and cultured in DMEM supplemented with 10% (v/v) FBS, 100 mg/L penicillin, and 100 mg/L streptomycin in 5% CO2 at 37 °C. For transient transfection, ~2.5 × 10^6 cells were mixed with 2 µg plasmids in 200 µL transfection buffer, and electroporation was carried out with a Scientz-2C electroporation apparatus (Scientz Biotech, Ningbo, China). The experiments were carried out 24 h after transfection.
(§3) For QRFPR, PrRPR, and KISS1R, HEK293 cells transfected with WT receptor or its mutants were seeded at a density of 4 × 10^4 per well into 96-well culture plates and incubated for 24 h at 37 °C in 5% CO2. For NPFF1R and NPFF2R, plasmids were transfected into HEK293 cells stably expressing Gα16. On the next day, cells were incubated with 2 μmol/L Fluo-4 AM in HBSS supplemented with 5.6 mmol/L D-glucose and 250 μmol/L sulfinpyrazone at 37 °C for 45 min. After washing, cells were added with 50 μL HBSS and incubated at room temperature for 10 min, then 25 μL agonist buffer was dispensed into the well using a FlexStation III microplate reader (Molecular Devices), and intracellular calcium change was recorded at an excitation wavelength of 485 nm and an emission wavelength of 525 nm. EC50 and Emax values for each curve were calculated by Prism 8.0 software (GraphPad Software).
For orientation: Calcium assays in cells follow changes in intracellular calcium, usually with a dye or a luminescent sensor.

Experiment [2] deals with T2, QRFPR mutants (Homo sapiens, UniProt Q96P65, H290A).
T2 construct: expressed in transfected cells; host or cells: HEK293, transient transfection by electroporation
The experiment is described as above. The class given is cell-based. The following applies: HEK293, QRFPR H290^6.52A; HEK293, Fluo-4; mean ± S.E.M., n ≥ 3. The procedure:
as §1, §2, §3

For experiment [3], the target named is T3, QRFPR mutants (Homo sapiens, UniProt Q96P65, L222A).
T3 construct: expressed in transfected cells; host or cells: HEK293, transient transfection by electroporation
Described as above. In kind it is cell-based. How it is done:
as §1, §2, §3

Experiment [4] concerns the target T4, QRFPR mutants (Homo sapiens, UniProt Q96P65, L193A).
T4 construct: expressed in transfected cells; host or cells: HEK293, transient transfection by electroporation
Described as above. The class given is cell-based. The procedure:
as §1, §2, §3

Experiment [5] concerns the target T5, QRFPR mutants (Homo sapiens, UniProt Q96P65, V121A).
T5 construct: expressed in transfected cells; host or cells: HEK293, transient transfection by electroporation
The description is as above. In kind it is cell-based. The following applies: HEK293, QRFPR V121^3.28A; HEK293, Fluo-4; mean ± S.E.M., n ≥ 3. How it is done: as §1, §2, §3

The target of experiment [6] is T6, QRFPR mutants (Homo sapiens, UniProt Q96P65, Q184A).
T6 construct: expressed in transfected cells; host or cells: HEK293, transient transfection by electroporation
Described as above. The class given is cell-based. The following applies: HEK293, QRFPR Q184^4.64A; HEK293, Fluo-4; mean ± S.E.M., n ≥ 3. How it is done:
as §1, §2, §3

In experiment [7] the target is T7, QRFPR mutants (Homo sapiens, UniProt Q96P65, T215A).
T7 construct: expressed in transfected cells; host or cells: HEK293, transient transfection by electroporation
The description is as above. The following applies: HEK293, QRFPR T215^5.39A; HEK293, Fluo-4; mean ± S.E.M., n ≥ 3. The class given is cell-based. The procedure:
as §1, §2, §3

In experiment [8] the target is T8, QRFPR mutants (Homo sapiens, UniProt Q96P65, P122A).
T8 construct: expressed in transfected cells; host or cells: HEK293, transient transfection by electroporation
The experiment is described as above. In kind it is cell-based. The following applies: HEK293, QRFPR P122^3.29A; HEK293, Fluo-4; mean ± S.E.M., n ≥ 3. The procedure:
as §1, §2, §3

Experiment [9] addresses T9, QRFPR mutants (Homo sapiens, UniProt Q96P65, S108A).
T9 construct: expressed in transfected cells; host or cells: HEK293, transient transfection by electroporation
The description is as above. Conditions: HEK293, QRFPR S108^2.65A; HEK293, Fluo-4; mean ± S.E.M., n ≥ 3. In kind it is cell-based. The procedure:
as §1, §2, §3

Experiment [10] deals with T10, QRFPR mutants (Homo sapiens, UniProt Q96P65, F289L).
T10 construct: expressed in transfected cells; host or cells: HEK293, transient transfection by electroporation
Described as above. The class given is cell-based. The procedure: as §1, §2, §3

In experiment [11] the target is T11, QRFPR mutants (Homo sapiens, UniProt Q96P65, Q318A).
T11 construct: expressed in transfected cells; host or cells: HEK293, transient transfection by electroporation
The description is as above. The class given is cell-based. The following applies: HEK293, QRFPR Q318^7.39A; HEK293, Fluo-4; mean ± S.E.M., n ≥ 3. The procedure:
as §1, §2, §3

Experiment [12] has as its target T12, QRFPR mutants (Homo sapiens, UniProt Q96P65, W205A).
T12 construct: expressed in transfected cells; host or cells: HEK293, transient transfection by electroporation
Described as above. In kind it is cell-based. Conditions: HEK293, QRFPR W205^ECL2A; HEK293, Fluo-4; mean ± S.E.M., n ≥ 3. The procedure:
as §1, §2, §3

Experiment [13] addresses T13, QRFPR mutants (Homo sapiens, UniProt Q96P65, I218A).
T13 construct: expressed in transfected cells; host or cells: HEK293, transient transfection by electroporation
The description is as above. In kind it is cell-based. The following applies: HEK293, QRFPR I218^5.42A; HEK293, Fluo-4; mean ± S.E.M., n ≥ 3. The procedure: as §1, §2, §3

For experiment [14], the target named is T14, QRFPR mutants (Homo sapiens, UniProt Q96P65, F192A).
T14 construct: expressed in transfected cells; host or cells: HEK293, transient transfection by electroporation
The experiment is described as above. The class given is cell-based. Conditions: HEK293, QRFPR F192^ECL2A; HEK293, Fluo-4; mean ± S.E.M., n ≥ 3. The procedure:
as §1, §2, §3

T10 sequence (Q96P65 whole entry F289L): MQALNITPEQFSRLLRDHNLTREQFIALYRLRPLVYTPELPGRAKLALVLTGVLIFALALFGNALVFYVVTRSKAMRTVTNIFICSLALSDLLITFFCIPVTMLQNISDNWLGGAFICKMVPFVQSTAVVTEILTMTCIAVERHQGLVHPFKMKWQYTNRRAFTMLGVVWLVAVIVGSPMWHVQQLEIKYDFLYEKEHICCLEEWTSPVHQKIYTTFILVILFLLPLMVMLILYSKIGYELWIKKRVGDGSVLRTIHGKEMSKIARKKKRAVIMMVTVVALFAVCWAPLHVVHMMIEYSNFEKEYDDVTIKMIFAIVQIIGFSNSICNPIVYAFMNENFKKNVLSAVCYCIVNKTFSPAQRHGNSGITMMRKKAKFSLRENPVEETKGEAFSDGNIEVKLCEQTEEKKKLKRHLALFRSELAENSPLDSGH
T4 sequence (Q96P65 whole entry L193A): as the sequence (Q96P65 whole entry F289L) above, with L193A, L289F counted along it
T3 sequence (Q96P65 whole entry L222A): as the sequence (Q96P65 whole entry F289L) above, with L222A, L289F counted along it
T14 sequence (Q96P65 whole entry F192A): as the sequence (Q96P65 whole entry F289L) above, with F192A, L289F counted along it
T2 sequence (Q96P65 whole entry H290A): as the sequence (Q96P65 whole entry F289L) above, with L289F, H290A counted along it
T6 sequence (Q96P65 whole entry Q184A): as the sequence (Q96P65 whole entry F289L) above, with Q184A, L289F counted along it
T9 sequence (Q96P65 whole entry S108A): as the sequence (Q96P65 whole entry F289L) above, with S108A, L289F counted along it
T5 sequence (Q96P65 whole entry V121A): as the sequence (Q96P65 whole entry F289L) above, with V121A, L289F counted along it
T8 sequence (Q96P65 whole entry P122A): as the sequence (Q96P65 whole entry F289L) above, with P122A, L289F counted along it
T1 sequence (Q96P65 whole entry Q211A): as the sequence (Q96P65 whole entry F289L) above, with Q211A, L289F counted along it
T13 sequence (Q96P65 whole entry I218A): as the sequence (Q96P65 whole entry F289L) above, with I218A, L289F counted along it
T12 sequence (Q96P65 whole entry W205A): as the sequence (Q96P65 whole entry F289L) above, with W205A, L289F counted along it
T7 sequence (Q96P65 whole entry T215A): as the sequence (Q96P65 whole entry F289L) above, with T215A, L289F counted along it
T11 sequence (Q96P65 whole entry Q318A): as the sequence (Q96P65 whole entry F289L) above, with L289F, Q318A counted along it

As a reminder, the Emax is the maximal effect, on the per cent scale that the assay sets. For the substance ASGPLGTLAEELSSYSRRKGGFSFRF-NH2 [26RFa], the “selectivity for QRFPR” value with QRFPR is recorded as “high selectivity of 26RFa for QRFPR”. Besides, the maximal response (Emax) on QRFPR mutants [1] came out at 94.9 ± 1.6%; at QRFPR mutants [2], 60.4 ± 0.39%; at QRFPR mutants [3] (HEK293, QRFPR L222^5.46A, HEK293, Fluo-4, mean ± S.E.M., n ≥ 3), 99 ± 1.3%; at QRFPR mutants [4] (HEK293, QRFPR L193^ECL2A, HEK293, Fluo-4, mean ± S.E.M., n ≥ 3) it was 66.8 ± 0.54%; at QRFPR mutants [5], 106 ± 5.4%; on QRFPR mutants [6], 71.4 ± 2.2%. Moreover, the Emax was found to be 85.8 ± 3.4% on QRFPR mutants [7]; 96.7 ± 1.4% at QRFPR mutants [8]; 51.7 ± 0.73% at QRFPR mutants [9]; 112 ± 5.1% at QRFPR mutants [10] (HEK293, QRFPR F289^6.51L, HEK293, Fluo-4, mean ± S.E.M., n ≥ 3); 1.69 ± 0.66% at QRFPR mutants [11]; 2.58 ± 1.2% on QRFPR mutants [12]. The maximal effect (Emax) at QRFPR mutants [13] worked out at 77.8 ± 0.31%; on QRFPR mutants [14] it was 87.4 ± 0.93%. Also, the “effect of L^5.46 on peptide activity” value at QRFPR mutants [3] (26RFa, QRFPR L^5.46 (Supplementary Fig. S3)) is “negligible effects”. Also, at QRFPR mutants [4] (QRFPR L193A), the “effect of mutation on peptide activity” value is listed as “remarkable decline in peptide activity”. Moreover, the “effect of mutation on 26RFa activity” value on QRFPR mutants [10] (QRFPR F289^6.51 to leucine) is given as “did not impact the 26RFa activity”.
